US12077503B2, “Substituted cyclic amides and their use as herbicides” (FMC CORPORATION, priority 2015, dated 2024)

How the values were obtained:
Type in all cases: in vivo
[1] = system: ivy-leaved morning glory (Ipomoea hederacea); assay: Test G Pre-Emergence Protocol; details: Ipomoea, pre-emergence, 312 h, evaluated after 13 days
Method in brief: (§1)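 Glasshouse pre-emergence test: soil-sown seeds, sprayed after 1 d at 15.625, 62.5 or 250 g/ha. Conditions 24/16° C day/night, 14 h light, 65% humidity, watering twice daily. Rating 13 d post-spray (100 = total damage).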

[2] = system: velvetleaf (Abutilon theophrasti); assay: Test G Pre-Emergence Protocol; details: Abutilon theophrasti, pre-emergence, 312 h, evaluated after 13 days
Method in brief: as §1

[3] = system: barnyardgrass (Echinochloa crus-galli); assay: Test G Pre-Emergence Protocol; details: Echinochloa crus-galli, pre-emergence, 312 h, evaluated after 13 days
Method in brief: as §1

[4] = system: giant foxtail (Setaria faberi); assay: Test G Pre-Emergence Protocol; details: Setaria faberi, pre-emergence, 312 h, evaluated after 13 days
Method in brief: as §1

[5] = system: redroot pigweed (Amaranthus retroflexus); assay: Test G Pre-Emergence Protocol; details: Amaranthus retroflexus, pre-emergence, 312 h, evaluated after 13 days
Method in brief: as §1

corn (Zea mays) [6] = assay: Test G Pre-Emergence Protocol; details: Zea mays, pre-emergence, 312 h, evaluated after 13 days
Method in brief: as §1

[7] = system: ivy-leaved morning glory (Ipomoea hederacea); assay: Test G Post-Emergence Protocol; details: Ipomoea, post-emergence, 312 h
Method in brief: (§2)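 Pot-grown seedlings, 8 days old, raised in a glasshouse at 24/16 °C day/night with 14 h light and 65% humidity, were sprayed post-emergence with test compound in acetone/water (50:50) plus 0.5% Tween 20 at 15.625, 62.5 or 250 g/ha. Damage was scored visually 13 days later on a 0–100 scale (100 = total damage).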

[8] = system: velvetleaf (Abutilon theophrasti); assay: Test G Post-Emergence Protocol; details: Abutilon theophrasti, post-emergence, 312 h
Method in brief: as §2

[9] = system: barnyardgrass (Echinochloa crus-galli); assay: Test G Post-Emergence Protocol; details: Echinochloa crus-galli, post-emergence, 312 h
Method in brief: as §2

[10] = system: giant foxtail (Setaria faberi); assay: Test G Post-Emergence Protocol; details: Setaria faberi, post-emergence, 312 h
Method in brief: as §2

[11] = system: redroot pigweed (Amaranthus retroflexus); assay: Test G Post-Emergence Protocol; details: Amaranthus retroflexus, post-emergence, 312 h
Method in brief: as §2

corn (Zea mays) [12] = assay: Test G Post-Emergence Protocol; details: Zea mays, post-emergence, 312 h
Method in brief: as §2

CN1C[C@@H](c2ccc(C(F)(F)F)cc2)[C@H](C(=O)Nc2cc(C(F)(F)F)n(C)n2)C1=O (racemic) [Compound 1512]
0%: pest or weed control at 15.625 g/ha ([1]; 15.625 g ai/ha, read-out: Morning-glory, Ivy-leaved damage rating (100=total damage to plant; 0=no damage to plant)) | pest or weed control at 62.5 g/ha ([1]; 62.5 g ai/ha, 100=total damage to plant, 0=no damage to plant, read-out: plant damage rating, Morningglory, Ivy-leaved) | pest or weed control at 250 g/ha ([1]; 250 g ai/ha, read-out: Morningglory, Ivy-leaved damage rating (100=total damage to plant; 0=no damage to plant)) | pest or weed control at 15.625 g/ha ([2]; 15.625 g ai/ha, read-out: Velvetleaf damage rating (100=total damage to plant; 0=no damage to plant)) | pest or weed control at 62.5 g/ha ([2]; 62.5 g ai/ha, 100=total damage to plant, 0=no damage to plant, read-out: plant damage rating, Velvetleaf) | pest or weed control at 250 g/ha ([2]; 250 g ai/ha, read-out: Velvetleaf damage rating (100=total damage to plant; 0=no damage to plant)) | pest or weed control at 15.625 g/ha ([3]; 15.625 g ai/ha, read-out: Barnyard grass damage rating (100=total damage to plant; 0=no damage to plant)) | pest or weed control at 62.5 g/ha ([3]; 62.5 g ai/ha, 100=total damage to plant, 0=no damage to plant, read-out: plant damage rating, Barnyardgrass) | pest or weed control at 250 g/ha ([3]; 250 g ai/ha, read-out: Barnyardgrass damage rating (100=total damage to plant; 0=no damage to plant)) | pest or weed control at 15.625 g/ha ([4]; 15.625 g ai/ha, read-out: Foxtail, Giant damage rating (100=total damage to plant; 0=no damage to plant)) | pest or weed control at 62.5 g/ha ([4]; 62.5 g ai/ha, 100=total damage to plant, 0=no damage to plant, read-out: plant damage rating, Foxtail, Giant) | pest or weed control at 250 g/ha ([4]; 250 g ai/ha, read-out: Foxtail, Giant damage rating (100=total damage to plant; 0=no damage to plant)) | pest or weed control at 15.625 g/ha ([5]; 15.625 g ai/ha, read-out: Pigweed, Redroot damage rating (100=total damage to plant; 0=no damage to plant)) | pest or weed control at 62.5 g/ha ([5]; 62.5 g ai/ha, 100=total damage to plant, 0=no damage to plant, read-out: plant damage rating, Pigweed, Redroot) | pest or weed control at 250 g/ha ([5]; 250 g ai/ha, read-out: Pigweed, Redroot damage rating (100=total damage to plant; 0=no damage to plant)) | plant injury at 15.625 g/ha (corn (Zea mays) [6]; 15.625 g ai/ha, read-out: Corn damage rating (100=total damage to plant; 0=no damage to plant)) | plant injury at 62.5 g/ha (corn (Zea mays) [6]; 62.5 g ai/ha, 100=total damage to plant, 0=no damage to plant, read-out: plant damage rating, Corn) | plant injury at 250 g/ha (corn (Zea mays) [6]; 250 g ai/ha, read-out: Corn damage rating (100=total damage to plant; 0=no damage to plant)) | pest or weed control at 15.625 g/ha ([7]; 15.625 g ai/ha, evaluated after 13 days (100=total damage to plant; 0=no damage to plant), read-out: Morningglory, Ivy-leaved damage rating) | pest or weed control at 62.5 g/ha ([7]; 62.5 g ai/ha, evaluated after 13 days, read-out: Morningglory, Ivy-leaved damage rating (100=total damage to plant; 0=no damage to plant)) | pest or weed control at 250 g/ha ([7]; 250 g ai/ha, evaluated after 13 days, read-out: damage to plant, Morningglory, Ivy-leaved (100=total damage to plant; 0=no damage to plant)) | pest or weed control at 15.625 g/ha ([8]; 15.625 g ai/ha, evaluated after 13 days (100=total damage to plant; 0=no damage to plant), read-out: Velvetleaf damage rating) | pest or weed control at 62.5 g/ha ([8]; 62.5 g ai/ha, evaluated after 13 days, read-out: Velvetleaf damage rating (100=total damage to plant; 0=no damage to plant)) | pest or weed control at 250 g/ha ([8]; 250 g ai/ha, evaluated after 13 days, read-out: damage to plant, Velvetleaf (100=total damage to plant; 0=no damage to plant)) | pest or weed control at 15.625 g/ha ([9]; 15.625 g ai/ha, evaluated after 13 days (100=total damage to plant; 0=no damage to plant), read-out: Barnyardgrass damage rating) | pest or weed control at 62.5 g/ha ([9]; 62.5 g ai/ha, evaluated after 13 days, read-out: Barnyardgrass damage rating (100=total damage to plant; 0=no damage to plant)) | pest or weed control at 250 g/ha ([9]; 250 g ai/ha, evaluated after 13 days, read-out: damage to plant, Barnyardgrass (100=total damage to plant; 0=no damage to plant)) | pest or weed control at 15.625 g/ha ([10]; 15.625 g ai/ha, evaluated after 13 days (100=total damage to plant; 0=no damage to plant), read-out: Foxtail, Giant damage rating) | pest or weed control at 62.5 g/ha ([10]; 62.5 g ai/ha, evaluated after 13 days, read-out: Foxtail, Giant damage rating (100=total damage to plant; 0=no damage to plant)) | pest or weed control at 250 g/ha ([10]; 250 g ai/ha, evaluated after 13 days, read-out: damage to plant, Foxtail, Giant (100=total damage to plant; 0=no damage to plant)) | pest or weed control at 15.625 g/ha ([11]; 15.625 g ai/ha, evaluated after 13 days (100=total damage to plant; 0=no damage to plant), read-out: Pigweed, Redroot damage rating) | pest or weed control at 62.5 g/ha ([11]; 62.5 g ai/ha, evaluated after 13 days, read-out: Pigweed, Redroot damage rating (100=total damage to plant; 0=no damage to plant)) | pest or weed control at 250 g/ha ([11]; 250 g ai/ha, evaluated after 13 days, read-out: damage to plant, Pigweed, Redroot (100=total damage to plant; 0=no damage to plant)) | plant injury at 15.625 g/ha (corn (Zea mays) [12]; 15.625 g ai/ha, evaluated after 13 days (100=total damage to plant; 0=no damage to plant), read-out: Corn damage rating) | plant injury at 62.5 g/ha (corn (Zea mays) [12]; 62.5 g ai/ha, evaluated after 13 days, read-out: Corn damage rating (100=total damage to plant; 0=no damage to plant)) | plant injury at 250 g/ha (corn (Zea mays) [12]; 250 g ai/ha, evaluated after 13 days, read-out: damage to plant, Corn (100=total damage to plant; 0=no damage to plant))
